{
  "source": "patent US20090042818A1",
  "about": "“Liquiritigenin and Derivatives as Selective Estrogen Receptor Beta Agonists” (BIONOVO, INC., priority 2007, published 2009)",
  "key": {"ERα and ERβ": {"test_system": "ERα and ERβ", "conditions": "cited from earlier work"}, "[1]": {"test_system": "MCF-7 breast cancer cells", "assay": "MCF-7 xenograft under kidney capsule of nude mice, tumor growth", "format": "in vivo", "conditions": "30 days; for tumor growth of MCF-7 grafts: subcutaneous osmotic pump, E2 0.4 mg, liquiritigenin 2 mg", "protocol": "(§1) MCF-7 (250,000) cells were aggregated in suspension and then resuspended in 200 μL neutralized collagen, as previously described (Parmar et al., Endocrinology 143:4886-4896 (2002). The cells were then grafted under the kidney capsule of nude mice as described and illustrated in detail at: http://mammary.nih.gov/tools/mousework/Cunha001/index.html. Five mice per group were treated with a continuous infusion using osmotic pumps (Alzet, Cupertino, Calif.) containing vehicle, E2 (0.4 mg) or liquiritigenin (2 mg) that infused 2.5 μl/h for 1 month. After one month of treatment, the tumors and uteri were removed and analyzed. These animal studies were carried out with approval from the University of California, San Francisco Committee on Animal Research. The major concern with estrogens for menopausal symptoms is the proliferation of breast and endometrial cells causing an increased risk for breast and uterine cancer. To determine if liquiritigenin has a proliferative effect on breast cancer and endometrial cells, MCF-7 breast cancer cells were grafted under the kidney capsule of nude mice. Using a subcutaneous osmotic pump designed to deliver a steady dose of drug, the mice were treated for 30 days with vehicle, E2, or liquiritigenin."}, "[2]": {"test_system": "mammary and uterine tissue", "conditions": "rat, in vivo; cited from earlier work"}, "ERα [3]": {"biological_target": "T1, ERα (Homo sapiens, UniProt P03372)", "T1 sequence (P03372 1-595)": "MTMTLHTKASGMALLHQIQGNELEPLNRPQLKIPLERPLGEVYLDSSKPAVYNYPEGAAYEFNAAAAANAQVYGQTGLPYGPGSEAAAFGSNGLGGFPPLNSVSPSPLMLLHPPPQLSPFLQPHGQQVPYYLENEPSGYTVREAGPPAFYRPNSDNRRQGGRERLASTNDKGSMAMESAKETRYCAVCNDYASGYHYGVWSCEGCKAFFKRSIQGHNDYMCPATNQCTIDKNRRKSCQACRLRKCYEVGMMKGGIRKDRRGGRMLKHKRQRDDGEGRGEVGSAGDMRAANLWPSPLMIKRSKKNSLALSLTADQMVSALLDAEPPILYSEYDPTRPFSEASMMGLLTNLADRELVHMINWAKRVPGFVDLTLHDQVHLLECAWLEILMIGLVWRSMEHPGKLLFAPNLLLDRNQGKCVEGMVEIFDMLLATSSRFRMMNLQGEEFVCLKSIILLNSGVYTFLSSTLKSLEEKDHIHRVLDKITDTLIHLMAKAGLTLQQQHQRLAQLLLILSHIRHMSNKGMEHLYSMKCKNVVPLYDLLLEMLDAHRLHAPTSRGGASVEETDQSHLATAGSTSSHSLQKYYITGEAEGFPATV", "assay": "Native ER regulatory element (CECR6, NKG2E, NKD) tk-Luc transfection assay with ERα", "format": "cell-based", "set-up": "expressed in transfected cells; host or cells: U2OS", "text": "In addition to the traditional ERE, it is important to determine if liquiritigenin selectivity activates ERβ in elements derived from native ER target genes. ER regulatory elements from the cat eye syndrome chromosome region candidate 6 (CECR6), killer cell lectin-like receptor (NKG2E) and the naked cuticule homolog (NKD) genes that are activated by E2 Levy et al., Endocrinology doi:10.1210/en.2006-1632 (2007)) were used. CECR6-tk-Luc (A), NKG2E-tk-Luc (B), and NKD-tk-Luc (C) were transfected into U2OS cells with expression vectors for human ERα or ERβ. […] Liquiritigenin produced a dose-dependent activation of CECR6, NKG2E, and NKD with ERβ but not with ERα (FIGS. 4A, 4B, 4C, respectively). The cells were then treated for increasing times with liquiritigenin."}, "ERα [4]": {"biological_target": "T1, ERα", "assay": "Real-time PCR of native target gene mRNA in U2OS-ERα cells", "format": "cell-based", "set-up": "expressed in transfected cells", "conditions": "1 μM"}, "androgen receptor (AR)": {"biological_target": "T2, androgen receptor (AR) (Homo sapiens, UniProt P10275)", "T2 sequence (P10275 1-920)": "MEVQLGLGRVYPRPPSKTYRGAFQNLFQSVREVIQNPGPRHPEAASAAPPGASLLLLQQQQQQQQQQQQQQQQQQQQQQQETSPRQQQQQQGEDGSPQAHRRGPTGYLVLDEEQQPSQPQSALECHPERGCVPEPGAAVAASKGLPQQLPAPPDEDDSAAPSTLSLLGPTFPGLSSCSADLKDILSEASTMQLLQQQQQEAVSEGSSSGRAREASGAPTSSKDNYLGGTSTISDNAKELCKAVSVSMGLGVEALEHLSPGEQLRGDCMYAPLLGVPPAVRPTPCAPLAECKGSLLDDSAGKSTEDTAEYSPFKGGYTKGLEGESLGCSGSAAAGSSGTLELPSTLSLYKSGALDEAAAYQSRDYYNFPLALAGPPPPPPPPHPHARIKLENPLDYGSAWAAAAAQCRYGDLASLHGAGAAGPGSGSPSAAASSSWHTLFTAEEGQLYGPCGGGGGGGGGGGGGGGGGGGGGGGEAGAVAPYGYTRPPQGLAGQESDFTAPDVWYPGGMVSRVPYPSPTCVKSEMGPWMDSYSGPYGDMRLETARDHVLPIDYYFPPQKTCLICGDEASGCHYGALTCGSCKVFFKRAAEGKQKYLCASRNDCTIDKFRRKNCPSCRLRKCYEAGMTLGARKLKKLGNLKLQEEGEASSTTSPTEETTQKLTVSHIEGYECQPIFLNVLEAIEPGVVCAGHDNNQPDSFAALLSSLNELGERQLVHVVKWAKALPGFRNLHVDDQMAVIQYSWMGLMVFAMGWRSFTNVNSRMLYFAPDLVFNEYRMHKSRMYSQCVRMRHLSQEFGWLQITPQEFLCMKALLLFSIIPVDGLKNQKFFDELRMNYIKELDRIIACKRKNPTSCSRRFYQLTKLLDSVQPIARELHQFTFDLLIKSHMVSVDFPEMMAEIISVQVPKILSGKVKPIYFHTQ", "assay": "TAT3-luciferase transfection assay with androgen receptor in U2OS cells", "conditions": "2.5 μM, 18 h"}, "uterus": {"test_system": "uterus", "assay": "MCF-7 xenograft study in nude mice, uterine horn mass", "format": "in vivo", "conditions": "osmotic pump, 30 days, E2 0.4 mg, liquiritigenin 2 mg", "protocol": "as §1"}, "[5]": {"biological_target": "T3, progesterone receptor B (PR) (Homo sapiens, UniProt P06401)", "T3 sequence (P06401 1-933)": "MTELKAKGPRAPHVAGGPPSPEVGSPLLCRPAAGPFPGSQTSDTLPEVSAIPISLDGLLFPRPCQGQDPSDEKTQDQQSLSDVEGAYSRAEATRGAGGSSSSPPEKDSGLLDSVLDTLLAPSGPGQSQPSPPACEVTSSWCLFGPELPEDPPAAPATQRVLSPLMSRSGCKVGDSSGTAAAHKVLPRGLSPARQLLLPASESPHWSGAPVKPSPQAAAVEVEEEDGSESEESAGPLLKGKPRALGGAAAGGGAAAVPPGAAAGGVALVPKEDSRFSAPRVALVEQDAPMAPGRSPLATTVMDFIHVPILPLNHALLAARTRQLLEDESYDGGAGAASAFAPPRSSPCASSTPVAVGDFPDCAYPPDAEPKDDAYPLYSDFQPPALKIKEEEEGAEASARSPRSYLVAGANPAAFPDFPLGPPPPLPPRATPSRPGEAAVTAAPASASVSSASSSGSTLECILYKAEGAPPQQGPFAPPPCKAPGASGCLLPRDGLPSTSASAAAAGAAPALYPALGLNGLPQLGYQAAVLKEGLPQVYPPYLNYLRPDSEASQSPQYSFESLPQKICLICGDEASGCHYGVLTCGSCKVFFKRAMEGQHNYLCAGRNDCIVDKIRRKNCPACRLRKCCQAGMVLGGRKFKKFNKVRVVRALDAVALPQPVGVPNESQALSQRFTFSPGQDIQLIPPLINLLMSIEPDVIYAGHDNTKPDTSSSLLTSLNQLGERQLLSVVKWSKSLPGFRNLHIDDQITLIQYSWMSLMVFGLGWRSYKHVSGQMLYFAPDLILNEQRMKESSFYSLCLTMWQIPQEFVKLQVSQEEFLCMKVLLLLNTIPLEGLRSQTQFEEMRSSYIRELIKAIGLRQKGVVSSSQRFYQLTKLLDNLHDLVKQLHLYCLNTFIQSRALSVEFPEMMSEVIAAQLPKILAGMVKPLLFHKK", "assay": "TAT3-luciferase transfection assay with progesterone receptor B in U2OS cells", "conditions": "2.5 μM, 18 h"}, "[6]": {"biological_target": "T4, thyroid hormone receptor β1 (TR) (Homo sapiens, UniProt P10828)", "T4 sequence (P10828 1-461)": "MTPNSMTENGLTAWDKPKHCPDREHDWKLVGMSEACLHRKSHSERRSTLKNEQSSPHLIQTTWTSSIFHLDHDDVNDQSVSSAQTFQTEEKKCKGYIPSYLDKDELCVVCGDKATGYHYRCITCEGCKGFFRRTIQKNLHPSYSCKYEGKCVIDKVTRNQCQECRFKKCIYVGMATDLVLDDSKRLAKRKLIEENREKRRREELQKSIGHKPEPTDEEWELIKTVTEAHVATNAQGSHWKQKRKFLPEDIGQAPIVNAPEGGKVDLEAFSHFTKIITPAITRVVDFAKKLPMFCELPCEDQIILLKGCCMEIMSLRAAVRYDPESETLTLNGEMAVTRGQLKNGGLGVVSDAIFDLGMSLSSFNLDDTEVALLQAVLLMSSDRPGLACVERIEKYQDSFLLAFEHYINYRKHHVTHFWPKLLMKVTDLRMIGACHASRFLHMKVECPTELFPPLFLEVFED", "assay": "F2-tkLuc transfection assay with thyroid hormone receptor β1 in U2OS cells", "conditions": "2.5 μM, 18 h"}, "[7]": {"biological_target": "T5, glucocorticoid receptor (GR) (Homo sapiens, UniProt P04150)", "T5 sequence (P04150 1-777)": "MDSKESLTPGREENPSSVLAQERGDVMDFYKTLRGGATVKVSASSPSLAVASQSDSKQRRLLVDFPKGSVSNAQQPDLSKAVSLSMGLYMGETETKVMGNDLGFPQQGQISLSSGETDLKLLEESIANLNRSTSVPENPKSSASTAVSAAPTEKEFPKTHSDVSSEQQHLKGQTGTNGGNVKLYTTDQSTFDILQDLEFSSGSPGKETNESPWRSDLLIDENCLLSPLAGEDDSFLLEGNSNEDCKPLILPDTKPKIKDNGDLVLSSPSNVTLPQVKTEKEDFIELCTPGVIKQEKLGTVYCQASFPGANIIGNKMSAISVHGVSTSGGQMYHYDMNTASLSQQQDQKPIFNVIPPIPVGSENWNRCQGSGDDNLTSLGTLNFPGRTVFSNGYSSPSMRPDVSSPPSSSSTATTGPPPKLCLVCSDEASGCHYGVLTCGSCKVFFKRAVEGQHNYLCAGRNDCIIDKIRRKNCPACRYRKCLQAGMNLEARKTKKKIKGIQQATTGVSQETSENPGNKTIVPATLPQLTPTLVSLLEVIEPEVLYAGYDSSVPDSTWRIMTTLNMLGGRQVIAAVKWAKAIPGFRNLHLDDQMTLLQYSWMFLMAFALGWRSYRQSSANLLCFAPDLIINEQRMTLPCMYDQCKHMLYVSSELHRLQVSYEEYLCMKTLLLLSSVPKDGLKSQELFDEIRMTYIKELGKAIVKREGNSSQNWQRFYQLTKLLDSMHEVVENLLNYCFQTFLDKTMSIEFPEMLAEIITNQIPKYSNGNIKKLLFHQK", "assay": "MMTV-luciferase transfection assay with glucocorticoid receptor in U2OS cells", "conditions": "2.5 μM, 18 h"}, "[8]": {"conditions": "U2OS cells, 18 h, increasing amounts"}},
  "note": "“Also recorded” adds a separate entry of the source.",
  "data": [
    {"compound": "C[C@]12CC[C@@H]3c4ccc(O)cc4CC[C@H]3[C@@H]1CC[C@@H]2O", "note": "[E2, 17β-Estra-1,3,5(10)-triene-3,17-diol, reference compound]", "values": [
      {"measurement": "binding affinity to ERβ compared to ERα", "setting": "ERα and ERβ", "value": "equal affinity"},
      {"measurement": "tumor growth of MCF-7 grafts", "setting": "[1]", "value": "Large tumors developed; also recorded: causes the formation of large tumors"}
    ]},
    {"compound": "C=Cc1cc(O)cc2nc(-c3ccc(O)c(F)c3)oc12", "note": "[ERβ-041]", "values": [
      {"measurement": "proliferative effects on mammary and uterine tissue", "setting": "[2]", "value": "does not elicit any proliferative effects"}
    ]},
    {"compound": "O=c1c(-c2ccc(O)cc2)coc2cc(O)cc(O)c12", "note": "[genistein]", "values": [
      {"measurement": "binding affinity to ERβ compared to ERα", "setting": "ERα and ERβ", "value": "higher affinity; also recorded: binds better to ERβ than ERα"}
    ]},
    {"compound": "O=C1C[C@@H](c2ccc(O)cc2)Oc2cc(O)ccc21", "note": "[liquiritigenin, (2S)-7-hydroxy-2-(4-hydroxyphenyl)-2,3-dihydro-4H-1-benzopyran-4-one]", "values": [
      {"measurement": "activation of multiple ER regulatory elements", "setting": "ERα [3]; 1 μM, ERα", "value": "does not activate"},
      {"measurement": "activation of CECR6-tk-Luc with ERα", "setting": "ERα [3]; [8]", "value": "not with ERα"},
      {"measurement": "activation of NKD-tk-Luc with ERα", "setting": "ERα [3]; [8]", "value": "not with ERα"},
      {"measurement": "activation of endogenous genes in U2OS-ERα cells", "setting": "ERα [4]", "value": "does not activate"},
      {"measurement": "activation of androgen receptor (luciferase)", "setting": "androgen receptor (AR)", "value": "did not activate"},
      {"measurement": "uterine horn mass", "setting": "uterus", "value": "did not increase uterine horn mass"},
      {"measurement": "uterine horn mass", "setting": "uterus; listed as liquirtigenin", "value": "does not increase the size of the uterus"},
      {"measurement": "activation of progesterone receptor B (luciferase)", "setting": "[5]", "value": "did not activate"},
      {"measurement": "activation of thyroid hormone receptor (luciferase)", "setting": "[6]", "value": "did not activate"},
      {"measurement": "activation of glucocorticoid receptor (luciferase)", "setting": "[7]", "value": "did not activate"},
      {"measurement": "weight of the tumors compared to the control mice", "setting": "[1]; osmotic pump, 2 mg", "value": "no differences in the weight of the tumors"},
      {"measurement": "tumor growth of MCF-7 grafts", "setting": "[1]", "value": "essentially no tumor growth; also recorded: does not stimulate breast cancer tumor formation"}
    ]}
  ]
}
